Data from ChEMBL document CHEMBL1151318, “New secosteroids from a gorgonian of the genus Muricella” (1998).
In brackets after ≈: the same amount, converted by molar mass.

How the values were obtained:
K562 = test: Cytotoxicity against human K562 cells; type: functional; details: read-out: LC50 (the source's name)
[1] = molecular target: Phospholipase A2 (Homo sapiens) (UniProt P04054); test: Inhibition of PLA2 at 50 ug/mL
Chain of Phospholipase A2 (Homo sapiens) (P04054 23-148 limits assumed): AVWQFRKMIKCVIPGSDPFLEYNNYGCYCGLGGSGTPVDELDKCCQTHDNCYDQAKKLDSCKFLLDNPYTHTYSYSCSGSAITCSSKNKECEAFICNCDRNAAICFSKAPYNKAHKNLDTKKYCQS

| Structure (SMILES) | CC50 (K562) | inhibition [1] |
| --- | --- | --- |
| CC(C)=CCC[C@@H](C)[C@H]1CC[C@H]2[C@H](CCc3cc(O)ccc3C)[C@H](O)CC[C@]12C [CALICOFEROL G] | 2.1 µg/mL (≈ 5.27 µM) | 55% |
| Cc1ccc(O)cc1CC[C@@H]1[C@H](O)CC[C@]2(C)[C@@H]([C@H](C)/C=C/C(C)C(C)C)CC[C@@H]12 (stereo partly drawn) [CALICOFEROL F] | 3.2 µg/mL (≈ 7.75 µM) |  |
| Cc1ccc(O)cc1CC[C@@H]1C(=O)CC[C@]2(C)[C@@H]([C@H](C)CCCC(C)C)[C@@H](O)C[C@@H]12 [CALICOFEROL I] | 9.6 µg/mL (≈ 23.2 µM) |  |
| Cc1ccc(O)cc1CC[C@@H]1[C@H](O)CC[C@]2(C)[C@@H]([C@H](C)/C=C/C(C)C)CC[C@@H]12 [CALICOFEROL H] | 10.7 µg/mL (≈ 27.8 µM) | 67% |
| Cc1ccc(O)cc1CC[C@@H]1[C@H](O)CC[C@]2(C)[C@@H]([C@H](C)CCCC(C)C)CC[C@@H]12 [ASTROGORGIADIOL] | 12.1 µg/mL (≈ 30.2 µM) | 47% |
